# From BindingDB's records for doi:10.1016/j.bmc.2008.02.078 (University of Tokyo, 2008)
# Target: Alpha-glucosidase MAL32 (Saccharomyces cerevisiae (strain ATCC 204508 / S288c), UniProt P38158)
# Assay: alpha-Glucosidase Inhibition Assay
# Settings: pH 7; 37 °C
# Description: The alpha-glucosidase inhibitory activity of test compounds was determined in a 96-well plate format. The reaction mixture containing enzyme and chromogenic substrate in the presence or absence of test compounds were incubated, and the amount of released p-nitrophenol was measured based on the absorbance at 405 nm. The IC50 values were calculated from the dose-response curves.
# Chain of Alpha-glucosidase MAL32 (P38158 whole entry): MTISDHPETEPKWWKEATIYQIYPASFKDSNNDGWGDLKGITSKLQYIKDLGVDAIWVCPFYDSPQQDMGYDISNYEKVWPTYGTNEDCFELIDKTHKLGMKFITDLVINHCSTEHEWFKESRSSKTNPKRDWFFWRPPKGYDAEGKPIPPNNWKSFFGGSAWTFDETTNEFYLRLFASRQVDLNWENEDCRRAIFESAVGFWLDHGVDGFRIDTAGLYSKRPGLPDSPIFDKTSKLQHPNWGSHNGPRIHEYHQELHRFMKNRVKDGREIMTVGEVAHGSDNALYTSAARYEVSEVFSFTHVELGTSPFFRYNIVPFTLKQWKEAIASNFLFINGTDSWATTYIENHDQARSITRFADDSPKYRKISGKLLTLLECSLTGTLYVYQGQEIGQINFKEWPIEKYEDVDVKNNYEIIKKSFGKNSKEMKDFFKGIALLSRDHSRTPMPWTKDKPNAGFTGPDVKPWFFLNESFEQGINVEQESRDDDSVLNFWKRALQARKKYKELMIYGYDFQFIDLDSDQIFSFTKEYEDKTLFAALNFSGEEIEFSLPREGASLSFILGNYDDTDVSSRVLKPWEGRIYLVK
row,IC50 [µM],Compound
1,> 100,"COc1ccc2cc1Oc1ccc(cc1)CCc1ccccc1-c1ccc(cc1)CC2 [16-methoxy-14-oxapentacyclo[20.2.2.2^{10,13}.1^{15,19}.0^{2,7}]nonacosa-1(24),2(7),3,5,10,12,15,17,19(27),22,25,28-dodecaene]"
2,> 30,"COc1ccc2c(c1)CCc1ccc(cc1)Oc1cccc(c1)CCc1ccc-2c(OC)c1 [5,25-dimethoxy-14-oxapentacyclo[20.2.2.2^{10,13}.1^{15,19}.0^{2,7}]nonacosa-1(24),2(7),3,5,10,12,15,17,19(27),22,25,28-dodecaene]"
3,100,"CC(C)CC[C@@H](O)[C@@H](C)[C@H]1CCC2C3CC=C4C[C@@H](O)CC[C@]4(C)C3C[C@@H](C)C21 (stereo partly drawn) [(2R,5S,14S,16R)-14-[(2S,3R)-3-hydroxy-6-methylheptan-2-yl]-2,16-dimethyltetracyclo[8.7.0.0^{2,7}.0^{11,15}]heptadec-7-en-5-ol]"
